We go through one molecule from US12370149B1, “Transdermal cannabidiol delivery device” (ZHI Technologies, Inc., priority 2024, dated 2025).

The data set is described as follows: Solubility of CBD in mineral oil. It is filed as physicochemical. From the text: Cannabidiol content. As discussed above, the matrices and TTDs of the present disclosure are advantageously formulated with a “saturated-plus-excess” concentration of CBD. The solubility of CBD in mineral oil (and by extension a PIB/mineral oil blend since PIB and mineral oil have the same solubility) is 4% (w/w). The amount of CBD in the matrix should be at least twofold, e.g., at least threefold, at least fourfold, or at least fivefold more CBD than the maximum concentration of CBD that dissolves in the plasticizer (e.g., mineral oil). The amount of CBD in the matrix can be any amount from about 10% (w/w) to about 30% (w/w) of the matrix, for example about 12.0% (w/w), about 12.5% (w/w), about 13.0% (w/w), about 13.5% (w/w), about 14.0% (w/w), about 14.5% (w/w), about 15.0% (w/w), about 15.5% (w/w), about 16.0% (w/w), about 16.5% (w/w), about 17.0% (w/w), about 17.5% (w/w), about 18.0% (w/w), about 18.5% (w/w), about 19.0% (w/w), about 19.5% (w/w), about 20.0% (w/w), or about 20.5% (w/w) of the matrix. The amount of cannabinoids other than CBD should be less than about 10% (w/w), for example less than about 1% (w/w).

For the molecule `C=C(C)[C@@H]1CCC(C)=C[C@H]1c1c(O)cc(CCCCC)cc1O` [CBD, cannabidiol], the “solubility of CBD in mineral oil (and by extension a PIB/mineral oil blend)” value was 4 % (w/w).
